Test results taken from paper PMC9186491, “Novel Small Molecule Tyrosine Kinase 2 Pseudokinase Ligands Block Cytokine-Induced TYK2-Mediated Signaling Pathways” (Frontiers in Immunology, 2022).
“And” between values parts separate entries of the source, which are not always exact repeats. Equal values may be shown once.

Assays:
[1] = LM T1/2, R; format: in vitro ADME; settings: rat, liver microsomes
[2] = target: T1, JAK1 JH1 kinase domain (Homo sapiens, UniProt P23458); experiment: KdELECT competition binding assay, JAK1 JH1; settings: read-out: JAK Binding Selectivity (Kd) Catalytical Domain (JH1) JAK1
T1 construct: purchased Eurofins DiscoverX Corporation (contract assay)
Experimental: (§1) The KdELECT competition assays were performed to test the binding affinity of compounds to the JH1 kinase region or JH2 pseudokinase region in TYK2 or JAK by ligand competition with JH1 or JH2 protein segments. The assay was carried out at Eurofins DiscoverX Corporation following the established standard protocol (DiscoverX, San Diego, CA). In this assay, compounds that bind to the kinase or pseudokinase protein regions prevent the protein binding to the immobilized ligand and reduce the amount of kinase matter captured on the solid surface. […] Dissociation constants (Kds) for test compound-kinase interactions are calculated by measuring the amount of kinase captured on the solid support as a function of the test compound concentration. […] The ligated beads were blocked with excess biotin and washed with blocking buffer to remove unbound ligand and to reduce nonspecific binding. […] All reactions were performed in polypropylene 384-well plates with a final volume of 20 μL. […] The beads were then re-suspended in the elution buffer and incubated at room temperature with shaking for 30 minutes. The kinase concentration in the eluant was measured by qPCR. Two replicates were performed and averaged to obtain the Kd measurement.

[3] = target: T2, JAK3 JH1 kinase domain (Homo sapiens, UniProt P52333); experiment: KdELECT competition binding assay, JAK3 JH1; settings: read-out: JAK Binding Selectivity (Kd) Catalytical Domain (JH1) JAK3
T2 construct: purchased Eurofins DiscoverX Corporation (contract assay)
Experimental: as §1

[4] = target: CYP450 2C9 (Homo sapiens, UniProt P11712); experiment: CYP450 inhibition, 2C9; format: in vitro ADME
[5] = PPB, Mk; format: in vitro ADME; settings: monkey, plasma
[6] = GSH; format: in vitro ADME
[7] = target: T3, TYK2 JH1 kinase domain (Homo sapiens, UniProt P29597); experiment: KdELECT competition binding assay, TYK2 JH1; settings: isolated TYK2 JH1 domain
T3 construct: purchased Eurofins DiscoverX Corporation (contract assay)
T3 sequence (P29597 897-1176 limits assumed): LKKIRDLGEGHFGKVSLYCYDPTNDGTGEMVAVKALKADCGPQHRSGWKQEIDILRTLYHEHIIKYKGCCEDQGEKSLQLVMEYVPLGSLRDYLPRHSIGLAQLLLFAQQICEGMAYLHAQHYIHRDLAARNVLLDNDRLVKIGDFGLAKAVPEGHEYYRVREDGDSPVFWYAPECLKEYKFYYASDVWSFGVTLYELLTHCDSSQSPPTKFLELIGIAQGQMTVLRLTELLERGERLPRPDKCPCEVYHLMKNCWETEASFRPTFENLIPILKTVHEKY
Experimental: as §1

[8] = target: CYP450 2C19 (Homo sapiens, UniProt P33261); experiment: CYP450 inhibition, 2C19; format: in vitro ADME
[9] = PPB, M; format: in vitro ADME; settings: mouse, plasma
[10] = LogD; format: physicochemical
[11] = target: T4, JAK2 JH2 pseudokinase domain (Homo sapiens, UniProt O60674); experiment: KdELECT competition binding assay, JAK2 JH2; settings: read-out: JAK Binding Selectivity (Kd) Pseudokinase Domain (JH2) JAK2
T4 construct: purchased Eurofins DiscoverX Corporation (contract assay)
Experimental: as §1

[12] = target: CYP450 2D6 (Homo sapiens, UniProt P10635); experiment: CYP450 inhibition, 2D6; format: in vitro ADME
[13] = target: T5, CYP450 1A2 (Homo sapiens, UniProt P05177); experiment: CYP450 inhibition, 1A2; format: in vitro ADME
T5 sequence (P05177 1-516): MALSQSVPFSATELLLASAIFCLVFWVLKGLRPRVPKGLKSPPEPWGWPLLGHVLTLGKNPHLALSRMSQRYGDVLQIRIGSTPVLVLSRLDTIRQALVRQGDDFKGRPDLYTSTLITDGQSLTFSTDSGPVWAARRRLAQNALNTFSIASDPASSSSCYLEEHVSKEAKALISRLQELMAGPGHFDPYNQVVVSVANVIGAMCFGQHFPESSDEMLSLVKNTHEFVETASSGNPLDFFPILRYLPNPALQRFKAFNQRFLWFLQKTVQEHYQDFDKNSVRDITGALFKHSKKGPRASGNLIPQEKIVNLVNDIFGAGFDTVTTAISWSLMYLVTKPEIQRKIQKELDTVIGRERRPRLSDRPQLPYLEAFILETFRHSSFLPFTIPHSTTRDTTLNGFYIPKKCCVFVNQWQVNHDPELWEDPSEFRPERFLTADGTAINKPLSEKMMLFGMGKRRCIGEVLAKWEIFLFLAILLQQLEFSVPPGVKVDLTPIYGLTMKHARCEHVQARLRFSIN

[14] = PPB, R; format: in vitro ADME; settings: rat, plasma
[15] = target: T6, TYK2 JH2 pseudokinase domain (Homo sapiens, UniProt P29597); experiment: KdELECT competition binding assay, TYK2 JH2; settings: isolated TYK2 JH2 domain
T6 construct: purchased Eurofins DiscoverX Corporation (contract assay)
Experimental: as §1

[16] = tested on: JAK1/3-dependent IL2-induced phosphorylation of STAT5 (Tyr694/699) in Kit225 cells; experiment: JAK cellular selectivity assay, IL2-pSTAT5 (JAK1/3); format: cell-based; settings: Homo sapiens; Kit225 cells; read-out: JAK Cellular Selectivity (IC50) IL2-pSTAT5 (JAK1/3)
Experimental: (§2) The cells were then ready for the assay after incubating for 2 hours in a humidified, 5% CO2 cell culture incubator at 37°C. […] The curve fit was generated, and statistical analysis was performed using GraphPad Prism. IC50 values were derived by non-linear regression analysis and defined as the compound concentration at which the response level was reduced to half of its maximum relative to a DMSO control.

[17] = tested on: JAK2-dependent EPO-induced phosphorylation of STAT5 (Tyr694/699) in TF1 cells; experiment: JAK cellular selectivity assay, EPO-pSTAT5 (JAK2); format: cell-based, human; settings: Homo sapiens, TF-1; TF1 cells; read-out: JAK Cellular Selectivity (IC50) EPO-pSTAT5 (JAK2)
Experimental: as §2

[18] = tested on: IL23-induced TYK2/phosphoSTAT3 (Tyr705) in Kit225 T cells; experiment: Kit225 T cell assay for IL23-induced TYK2/phosphoSTAT3 activity; format: cell-based, human; settings: Homo sapiens; Kit225 cells, 100 ng/mL IL23, AlphaLISA; read-out: IC50 IL23-induced-STAT3 Phosphorylation
Experimental: The cells were treated with serially diluted compounds for 1 hour and stimulated with 100 ng/mL human recombinant IL23 (R&D Systems) for 20 minutes. The treated cells were then lysed and cellular phosphorylated-STAT3 (Tyr705) levels were measured by AlphaLISA (PerkinElmer, Cat# ALSU-PST3) according to the manufacturer’s instructions.

[19] = LM T1/2, M; format: in vitro ADME; settings: mouse, liver microsomes

Chain of CYP450 2D6 (P10635 whole entry): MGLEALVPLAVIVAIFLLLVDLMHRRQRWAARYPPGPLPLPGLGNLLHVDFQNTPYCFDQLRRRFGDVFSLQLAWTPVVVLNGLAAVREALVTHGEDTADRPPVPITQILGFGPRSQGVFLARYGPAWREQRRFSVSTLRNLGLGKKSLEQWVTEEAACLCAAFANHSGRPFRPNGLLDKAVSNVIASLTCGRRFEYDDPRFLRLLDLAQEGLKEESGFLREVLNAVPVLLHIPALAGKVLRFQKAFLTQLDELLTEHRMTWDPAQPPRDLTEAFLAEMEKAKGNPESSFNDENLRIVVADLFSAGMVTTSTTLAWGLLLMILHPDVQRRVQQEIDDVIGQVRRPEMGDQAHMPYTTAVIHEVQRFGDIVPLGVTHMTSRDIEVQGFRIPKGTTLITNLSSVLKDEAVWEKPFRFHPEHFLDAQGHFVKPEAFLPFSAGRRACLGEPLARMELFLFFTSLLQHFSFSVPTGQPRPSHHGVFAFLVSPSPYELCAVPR
T6 sequence (P29597 589-875 limits assumed): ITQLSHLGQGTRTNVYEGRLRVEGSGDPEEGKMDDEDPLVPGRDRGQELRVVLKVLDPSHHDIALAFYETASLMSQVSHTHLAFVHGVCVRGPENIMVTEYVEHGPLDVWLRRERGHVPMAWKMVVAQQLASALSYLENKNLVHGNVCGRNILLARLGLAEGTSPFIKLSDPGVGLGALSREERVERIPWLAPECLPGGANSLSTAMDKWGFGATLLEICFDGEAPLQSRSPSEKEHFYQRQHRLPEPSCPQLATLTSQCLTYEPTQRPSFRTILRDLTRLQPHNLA
Chain of CYP450 2C9 (P11712 whole entry): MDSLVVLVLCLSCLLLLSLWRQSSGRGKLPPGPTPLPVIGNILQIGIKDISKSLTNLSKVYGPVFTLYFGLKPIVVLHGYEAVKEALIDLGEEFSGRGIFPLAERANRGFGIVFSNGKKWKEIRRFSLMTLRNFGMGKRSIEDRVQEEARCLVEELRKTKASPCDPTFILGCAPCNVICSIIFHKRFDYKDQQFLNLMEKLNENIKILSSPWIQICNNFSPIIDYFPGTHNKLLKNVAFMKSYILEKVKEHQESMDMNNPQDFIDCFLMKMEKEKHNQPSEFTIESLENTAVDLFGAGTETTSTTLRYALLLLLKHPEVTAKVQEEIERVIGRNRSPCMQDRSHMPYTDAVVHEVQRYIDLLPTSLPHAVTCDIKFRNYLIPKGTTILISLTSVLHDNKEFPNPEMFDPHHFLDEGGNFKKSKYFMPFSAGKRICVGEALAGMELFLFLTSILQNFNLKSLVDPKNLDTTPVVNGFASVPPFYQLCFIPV
T4 sequence (O60674 545-809 limits assumed): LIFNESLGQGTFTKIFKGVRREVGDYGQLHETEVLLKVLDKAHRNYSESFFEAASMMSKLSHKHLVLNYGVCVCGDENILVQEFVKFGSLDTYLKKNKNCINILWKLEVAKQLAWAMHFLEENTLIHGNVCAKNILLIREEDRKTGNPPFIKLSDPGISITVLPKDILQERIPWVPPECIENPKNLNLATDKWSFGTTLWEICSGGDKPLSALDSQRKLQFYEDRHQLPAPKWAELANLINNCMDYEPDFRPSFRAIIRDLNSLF
T2 sequence (P52333 822-1111 limits assumed): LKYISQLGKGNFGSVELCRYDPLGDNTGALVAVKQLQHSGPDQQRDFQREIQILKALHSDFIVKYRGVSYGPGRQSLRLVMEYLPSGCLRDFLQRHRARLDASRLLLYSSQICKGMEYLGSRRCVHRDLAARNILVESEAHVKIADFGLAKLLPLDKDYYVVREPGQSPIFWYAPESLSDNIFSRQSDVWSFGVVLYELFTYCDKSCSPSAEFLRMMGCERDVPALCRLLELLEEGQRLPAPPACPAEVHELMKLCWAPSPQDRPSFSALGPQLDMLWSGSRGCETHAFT
T1 sequence (P23458 875-1153 limits assumed): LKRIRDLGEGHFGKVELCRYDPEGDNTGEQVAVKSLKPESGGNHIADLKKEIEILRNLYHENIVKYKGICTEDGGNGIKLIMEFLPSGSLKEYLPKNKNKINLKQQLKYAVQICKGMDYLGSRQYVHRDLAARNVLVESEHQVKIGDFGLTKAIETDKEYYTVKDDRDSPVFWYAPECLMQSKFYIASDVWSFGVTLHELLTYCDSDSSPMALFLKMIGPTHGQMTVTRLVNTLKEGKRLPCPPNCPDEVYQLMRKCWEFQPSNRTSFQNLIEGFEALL
Chain of CYP450 2C19 (P33261 whole entry): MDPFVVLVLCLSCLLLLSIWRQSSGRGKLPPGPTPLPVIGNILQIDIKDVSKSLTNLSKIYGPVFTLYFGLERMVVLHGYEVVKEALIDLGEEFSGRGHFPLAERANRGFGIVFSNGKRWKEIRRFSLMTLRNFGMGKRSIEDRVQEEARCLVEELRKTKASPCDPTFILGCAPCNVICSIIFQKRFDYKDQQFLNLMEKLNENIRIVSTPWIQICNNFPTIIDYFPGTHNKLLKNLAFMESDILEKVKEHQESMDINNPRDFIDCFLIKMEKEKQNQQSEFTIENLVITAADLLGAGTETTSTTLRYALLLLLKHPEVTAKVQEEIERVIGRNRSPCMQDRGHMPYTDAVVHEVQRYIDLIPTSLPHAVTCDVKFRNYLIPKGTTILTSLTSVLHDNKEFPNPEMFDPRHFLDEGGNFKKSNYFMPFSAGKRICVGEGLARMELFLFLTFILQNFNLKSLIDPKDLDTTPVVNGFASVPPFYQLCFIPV

`CNC(=O)c1nnc(NC(=O)N2CCC2)cc1Nc1cccc(-c2ncn(C)n2)c1OC` [SHR8751] showed a half-life [1] greater than 67 min, a Kd [2] greater than 20 µM and a Kd [3] of 3.7 ± 0.07 µM. The IC50 [4] was greater than 30 µM, the fraction unbound [5] was 0.281 and the GSH [6] was “negative”. For the same compound, the Kd [7] was greater than 20 µM, the IC50 [8] was greater than 30 µM and the fraction unbound [9] was 0.35. For the same compound, the logD [10] was 0.43, the Kd [11] was 0.29 ± 0.099 µM and the IC50 [12] was greater than 30 µM. It also gave an IC50 [13] greater than 30 µM, a fraction unbound [14] of 0.329 and a Kd [15] of 0.032 nM. It also gave an IC50 [16] greater than 10 µM, an IC50 [17] greater than 10 µM and an IC50 [18] of 0.027 µM. For the same compound, the half-life [19] was greater than 139 min.
Compound `[2H]C([2H])([2H])NC(=O)c1nnc(NC(=O)N2CCC2)cc1Nc1cccc(-c2ncn(C)n2)c1OC` [SHR9332] has a half-life [1] greater than 67 min, a Kd [2] greater than 20 µM and a Kd [3] of 4.5 µM. The IC50 [4] was greater than 30 µM, the fraction unbound [5] was 0.231 and the GSH [6] was “negative”. The Kd [7] was greater than 20 µM, the IC50 [8] was greater than 30 µM and the fraction unbound [9] was 0.249. For the same compound, the logD [10] was 0.48, the Kd [11] was 0.22 µM and the IC50 [12] was greater than 30 µM. For the same compound, the IC50 [13] was greater than 30 µM, the fraction unbound [14] was 0.254 and the Kd [15] was 0.04 nM. The IC50 [16] was greater than 10 µM, the IC50 [17] was greater than 10 µM and the IC50 [18] was 0.079 µM. The half-life [19] was 49.8 min.
Work on `CNC(=O)c1nnc(NC(=O)C2CC2)c2[nH]c(-c3ccc(N)cc3OC)cc12` [SHR2396] yielded a half-life [1] greater than 67 min, a Kd [2] greater than 20 µM and a Kd [3] greater than 20 µM. For the same compound, the IC50 [4] was greater than 30 µM, the fraction unbound [5] was 0.0351 and the GSH [6] was “negative”. It also gave a Kd [7] of 0.3 µM, an IC50 [8] greater than 30 µM and a fraction unbound [9] of 0.0292. It also gave a logD [10] of 1.19, a Kd [11] of 0.19 ± 0.099 µM and an IC50 [12] greater than 30 µM. For the same compound, the IC50 [13] was greater than 30 µM, the fraction unbound [14] was 0.0474 and the Kd [15] was 0.029 nM and 0.019 nM. It also gave an IC50 [16] of 1.4 ± 1.4 µM, an IC50 [17] greater than 10 µM and an IC50 [18] of 0.0059 µM. For the same compound, the half-life [19] was 31 min.
